What was measured:
[1] = biological target: T1, 17β-HSD1 (Homo sapiens, UniProt P14061); test: Inhibition of 17β-HSD1 (estrone to estradiol, radio-HPLC); assay type: biochemical; settings: for IC50: human placenta enzyme, 500 nM estrone, NADH 500 μM; for Selectivity IC50 (17β-HSD2)/IC50 (17β-HSD1): ratio of IC50 values
T1 construct: In both cases, human placenta served as the enzyme source; from tissue; host or cells: human placenta
T1 sequence (P14061 1-328): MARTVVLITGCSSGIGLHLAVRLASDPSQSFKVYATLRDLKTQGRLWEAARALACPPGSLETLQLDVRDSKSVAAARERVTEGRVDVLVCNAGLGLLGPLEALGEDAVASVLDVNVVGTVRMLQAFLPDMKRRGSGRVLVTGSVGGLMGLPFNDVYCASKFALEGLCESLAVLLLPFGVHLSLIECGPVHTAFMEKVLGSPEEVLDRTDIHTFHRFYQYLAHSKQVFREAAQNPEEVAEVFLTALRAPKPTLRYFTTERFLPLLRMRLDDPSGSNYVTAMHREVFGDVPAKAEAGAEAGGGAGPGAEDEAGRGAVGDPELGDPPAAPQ
Description: In the 17β-HSD1 test, NADH is employed as a cosubstrate at a final concentration of 500 μM in order to avoid the product inhibition occurring with NADPH. The enzyme preparation is diluted with test buffer to such an extent that the control conversion is 10 to maximally 20% (about 1:650). As the substrate, estrone in a final concentration of 500 nM is used, of which 3 nM is tritiated. 2,4,6,7-[^3H]estrone is purchased from Perkin-Elmer, Boston. The inhibitor is added as a solution in DMSO (control: pure DMSO without inhibitor; the final concentration of DMSO in the assay is 1% in all cases).
(§1) After the reaction, the substrate and product are extracted by partitioning with ether, separated by chromatography (HPLC) and quantified by means of radiodetection.

[2] = biological target: T2, 17β-HSD2 (Homo sapiens, UniProt P37059); test: Inhibition of 17β-HSD2 (estradiol to estrone, radio-HPLC); assay type: biochemical; settings: human placenta microsome fraction, 500 nM estradiol, NAD+ 1500 μM
T2 construct: from tissue; host or cells: human placenta, microsome fraction
T2 sequence (P37059 1-387): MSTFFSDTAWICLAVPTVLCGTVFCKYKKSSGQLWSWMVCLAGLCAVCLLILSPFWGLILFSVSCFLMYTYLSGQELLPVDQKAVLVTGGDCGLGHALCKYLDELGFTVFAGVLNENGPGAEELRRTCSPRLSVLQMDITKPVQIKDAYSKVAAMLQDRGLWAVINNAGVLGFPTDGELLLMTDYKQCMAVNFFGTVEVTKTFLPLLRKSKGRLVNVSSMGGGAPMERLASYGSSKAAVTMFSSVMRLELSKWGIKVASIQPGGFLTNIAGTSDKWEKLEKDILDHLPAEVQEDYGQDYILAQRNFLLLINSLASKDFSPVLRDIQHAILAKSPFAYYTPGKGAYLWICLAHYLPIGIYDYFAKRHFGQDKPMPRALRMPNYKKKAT
Description: Determination of the inhibitory activity of the potential inhibitors: Inhibition of 17β-HSD1 and 17β-HSD2: In both cases, human placenta served as the enzyme source (Lin, S.-X. et al., J. Biol. Chem., 267: 16182-16187 (1992)).
In the 17β-HSD2 test, the natural cosubstrate NAD^+ is employed at a final concentration of 1500 μM. The microsome fraction is diluted in test buffer, so that a control conversion of 20 to 30% results (about 1:350). As the substrate, estradiol in a final concentration of 500 nM is used, of which 3 nM is tritiated. 2,4,6,7-[^3H]estradiol is also purchased from Perkin-Elmer, Boston. The inhibitor is added as a solution in DMSO (control: pure DMSO without inhibitor; the final concentration of DMSO in the assay is […]). After the addition of the substrate, incubation is performed at 37° C. for 20 minutes. The reaction is quenched by the addition of HgCl2 (final concentration of HgCl2: 0.166 mM).
as §1

[3] = In vivo pharmacokinetics (rat), peroral cassette dosing; design: species or system Wistar rats; settings: 10 mg/kg; for AUC(0-inf): extrapolated to ∞
Description: In vivo pharmacokinetics (rat): The compounds 29, 45, 47 and 59 and a reference compound were administered to adult male Wistar rats (n=4) perorally in a cassette dosing method (vehicle: Labrasol/water 1/1). The plasma profiles were established by means of LC-MS/MS.
• Cmax obs highest measured concentration • Cz last analytically quantifiable concentration • tmax obs time to reach the highest measured concentration • tz time to withdrawal of the last sample with analytically quantifiable concentration • t1/2z half life (determined from the slope of the declining portion of the concentration vs. time curve • AUC0-tz area below the concentration vs. time curve up to time tZ • AUC0-∞ area below the concentration vs. time curve, extrapolated to ∞

Row | SMILES | IC50 [1] [nM] | Selectivity IC50 (17β-HSD2)/IC50 (17β-HSD1) [1] | IC50 [2] [nM] | further results
1 | Oc1ccc(-c2cnc(-c3ccc(O)cc3)s2)cc1 [Compound 21, 4,4′-(1,3-Thiazole-2,5-diyl)diphenol] |  |  |  | inhibition of 17β-HSD1 at a concentration of 1 μM (in words) [1]: do not show any inhibition
2 | Oc1ccc(-c2ccsc2-c2ccc(O)cc2)cc1 [Compound 27, 4,4′-Thiene-2,3-diyldiphenol] |  |  |  | inhibition of 17β-HSD1 at a concentration of 1 μM (in words) [1]: do not show any inhibition
3 | Oc1ccc(-c2ccc(-c3ccc(O)cc3)s2)cc1 [Compound 30, 4,4′-Thiene-2,5-diyldiphenol] |  |  |  | inhibition of 17β-HSD1 at a concentration of 1 μM (in words) [1]: do not show any inhibition
4 | Oc1ccc(-c2csc(-c3cccc(O)c3)c2)cc1 [Compound 33, 3-[4-(4-Hydroxyphenyl)-2-thienyl]phenol] | 70 | 18 | 1270 | 
5 | Oc1cccc(-c2csc(-c3cccc(O)c3)c2)c1 [Compound 34, 3,3′-Thiene-2,4-diyldiphenol] | 170 | 3.3 | 560 | 
6 | Oc1cccc(-c2nnc(-c3cccc(O)c3)o2)c1 [Compound 35, 3,3′-(1,3,4-Oxadiazole-2,5-diyl)diphenol] |  |  |  | inhibition of 17β-HSD1 at a concentration of 1 μM (in words) [1]: do not show any inhibition
7 | Oc1cccc(-c2nnc(-c3cccc(O)c3)s2)c1 [Compound 36, 3,3′-(1,3,4-Thiadiazole-2,5-diyl)diphenol] | 510 |  |  | 
8 | COc1ccc(-c2nsc(-c3cccc(O)c3)n2)cc1 [Compound 38, 3-[3-(4-Methoxyphenyl)-1,2,4-thiadiazole-5-yl]phenol] | 820 |  |  | 
9 | Oc1ccc(-c2nsc(-c3ccc(O)cc3)n2)cc1 [Compound 39, 4,4′-(1,2,4-Thiadiazole-3,5-diyl)diphenol] |  |  |  | inhibition of 17β-HSD1 at a concentration of 1 μM (in words) [1]: do not show any inhibition
10 | Oc1ccc(-c2nsc(-c3cccc(O)c3)n2)cc1 [Compound 40, 3-[3-(4-Hydroxyphenyl)-1,2,4-thiadiazole-5-yl]phenol] | 360 | 6.1 | 2200 | 
11 | Oc1ccc(-c2cccc(-c3cccc(O)c3)c2)cc1 [Compound 43, [1,1′;3′,1″]Terphenyl-4,3″-diol] | 1410 | 2.2 | 3100 | 
12 | Oc1ccc(-c2ccc(-c3cccc(O)c3)cc2)cc1 [Compound 44, [1,1′;4′,1″]Terphenyl-4,3″-diol] | 240 | 19 | 4500 | 
13 | CS(=O)(=O)Nc1cccc(-c2ccc(-c3cccc(O)c3)s2)c1 [Compound 51, N-{3-[5-(3-Hydroxyphenyl)-2-thienyl]phenyl}methanesulfonamide] | 520 |  |  | 
14 | Oc1cccc(-c2ccc(-c3ccccc3)s2)c1 [Compound 52, 3-(5-Phenyl-2-thienyl)phenol] | 340 | 6.9 | 2340 | 
15 | Cc1cc(-c2csc(-c3cccc(O)c3)c2)ccc1O [Compound 55, 4-[5-(3-Hydroxyphenyl)-3-thienyl]-2-methylphenol] | 100 | 8.7 | 870 | 
16 | Cc1cc(-c2cnc(-c3cccc(O)c3)s2)ccc1O [Compound 56, 4-[2-(3-Hydroxyphenyl)-1,3-thiazole-5-yl]-2-methylphenol] | 100 | 20 | 2020 | 
17 | Oc1cccc(-c2ccc(-c3cccc(O)c3)nc2)c1 [Compound 57, 3,3′-Pyridine-2,5-diyldiphenol] | 100 | 34 | 3400 | 
18 | Oc1cccc(-c2cnc(-c3cccc(O)c3)cn2)c1 [Compound 58, 3,3′-Pyrazine-2,5-diyldiphenol] | 1000 | 5.5 | 5500 | 
19 | Oc1cccc(-c2nnc(-c3cccc(O)c3)nn2)c1 [Compound 59, 3,3′-(1,2,4,5-Tetrazine-3,6-diyl)diphenol] | 200 | 26 | 5100 | tz (time of last sample with quantifiable concentration) [3]: 10.0 h; Cz (last analytically quantifiable concentration) ([3]; plasma): 54 ng/mL; AUC(0-t) ([3]; male, Wistar, plasma, po): 1200 ng·h/mL; AUC(0-inf) ([3]; male, Wistar, plasma, po): 1200 ng·h/mL; half-life ([3]; male, Wistar, plasma, po, read-out: t1/2z (half life) (converted)): 1.2 h; Tmax ([3]; male, Wistar, plasma, po, read-out: tmax obs (time to reach the highest measured concentration)): 3 h

More lines, main results first:

Row | IC50 [1] [nM] | Selectivity IC50 (17β-HSD2)/IC50 (17β-HSD1) [1] | IC50 [2] [nM] | SMILES | further results
20 | 110 | 6.8 | 750 | Oc1cccc(-c2ccc(-c3cccc(O)c3)s2)c1 [Compound 31, 3,3′-Thiene-2,5-diyldiphenol] | 
21 | 40 | 49 | 1970 | Cc1cc(-c2ccc(-c3cccc(O)c3)s2)ccc1O [Compound 45, 4-[5-(3-Hydroxyphenyl)-2-thienyl]-2-methylphenol] | t1/2z (half life) [3]: 3.8 h; tmax obs (time to reach the highest measured concentration) [3]: 4.0 h; tz (time of last sample with quantifiable concentration) [3]: 24.0 h; Cz (last analytically quantifiable concentration) ([3]; plasma): 43.4 ng/mL; AUC(0-t) ([3]; male, Wistar, plasma, po): 12000 ng·h/mL; AUC(0-inf) ([3]; male, Wistar, plasma, po): 12300 ng·h/mL
22 | 800 | 2.1 | 1640 | Oc1cccc(-c2ccc(-c3ccc(O)c(O)c3)s2)c1 [Compound 46, 4-[5-(3-Hydroxyphenyl)-2-thienyl]benzene-1,2-diol] | 
23 | 10 | 94 | 940 | Oc1cccc(-c2ccc(-c3ccc(O)c(F)c3)s2)c1 [Compound 47, 2-Fluoro-4-[5-(3-hydroxyphenyl)-2-thienyl]phenol] | t1/2z (half life) [3]: 2.7 h; tmax obs (time to reach the highest measured concentration) [3]: 8.0 h; tz (time of last sample with quantifiable concentration) [3]: 24.0 h; Cz (last analytically quantifiable concentration) ([3]; plasma): 25 ng/mL; AUC(0-t) ([3]; male, Wistar, plasma, po): 19300 ng·h/mL; AUC(0-inf) ([3]; male, Wistar, plasma, po): 19400 ng·h/mL
24 | 50 | 4.6 | 230 | Oc1cccc(-c2ccc(-c3cc(F)c(O)c(F)c3)s2)c1 [Compound 48, 2,6-Difluoro-4-[5-(3-hydroxyphenyl)-2-thienyl]phenol] | 
25 | 40 |  |  | Oc1cccc(-c2ccc(-c3ccc(O)c(C(F)(F)F)c3)s2)c1 [Compound 49, 4-[5-(3-Hydroxyphenyl)-2-thienyl]-2-(trifluoromethyl)phenol] | 
26 | 530 |  |  | Oc1cccc(-c2ccc(-c3cccc(F)c3)s2)c1 [Compound 50, 3-[5-(3-Fluorophenyl)-2-thienyl]phenol] | 
27 | 720 |  |  | Oc1cccc(-c2ccc(-c3ccc(F)cc3)s2)c1 [Compound 54, 3-[5-(4-Fluorophenyl)-2-thienyl]phenol] | 
